# The supplement of paper PMC10307832
# Experiments:
# Assay in all cases: relative viability (nuclei count vs DMSO), 5 days (fraction); higher = more cells survive
# [1] = compound: O=S(=O)(c1ccccc1)N(CC(F)(F)F)c1ccc(C(O)(C(F)(F)F)C(F)(F)F)cc1 + CC1(C)CCC(c2ccc(Cl)cc2)=C(CN2CCN(c3ccc(C(=O)NS(=O)(=O)c4ccc(N[C@H](CCN5CCOCC5)CSc5ccccc5)c(S(=O)(=O)C(F)(F)F)c4)cc3)CC2)C1 [Navitoclax] (partner 0.5 µM)
# Summary of the method: (§1)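 Medians of duplicate plates are given as relative viability. That measure is the nuclei count in treated wells divided by the count in vehicle wells. Counts were taken on 4× images of lung cancer cell lines in 1536-well plates, 5 days after pin-tool dosing the day after seeding with one drug alone or a fixed anchor-drug dose plus five library-drug doses (not always all listed) in √10 steps.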
# [2] = compound: C1=CC2=C(C=CC(=C2)C=C3C(=O)NC(=NCC4=CC=CS4)S3)N=C1 [RO-3306] + CC(=O)Nc1cccc(-n2c(=O)n(C3CC3)c(=O)c3c(Nc4ccc(I)cc4F)n(C)c(=O)c(C)c32)c1 [Trametinib] (partner 0.02 µM)
# Summary of the method: as §1
# [3] = compound: C1=CC2=C(C=CC(=C2)C=C3C(=O)NC(=NCC4=CC=CS4)S3)N=C1 [RO-3306] + CC(C)C[C@H](NC(=O)[C@H](Cc1ccccc1)NC(=O)c1cnccn1)B(O)O [Bortezomib] (partner 0.002 µM)
# Summary of the method: as §1
# [4] = compound: C1=CC2=C(C=CC(=C2)C=C3C(=O)NC(=NCC4=CC=CS4)S3)N=C1 [RO-3306] + Cc1cc(Nc2cc(N3CCN(C)CC3)nc(Sc3ccc(NC(=O)C4CC4)cc3)n2)n[nH]1 [Tozasertib] (partner 0.1 µM)
# Summary of the method: as §1
Cell Line,relative viability ([1]; first compound 0.8 µM),relative viability ([1]; first compound 2.53 µM),relative viability ([1]; first compound 8 µM),relative viability ([2]; first compound 0.01 µM),relative viability ([2]; first compound 0.03162 µM),relative viability ([2]; first compound 0.1 µM),relative viability ([2]; first compound 0.3162 µM),relative viability ([2]; first compound 1 µM),relative viability ([3]; first compound 0.01 µM),relative viability ([3]; first compound 0.03162 µM),relative viability ([3]; first compound 0.1 µM),relative viability ([3]; first compound 0.3162 µM),relative viability ([3]; first compound 1 µM),relative viability ([4]; first compound 0.01 µM),relative viability ([4]; first compound 0.03162 µM),relative viability ([4]; first compound 0.1 µM),relative viability ([4]; first compound 0.3162 µM),relative viability ([4]; first compound 1 µM)
201T,1.18,1.18,1.22,0.691,0.727,0.706,0.725,0.671,1.11,1.11,1.07,1.11,0.934,1,0.933,0.925,0.975,0.964
A549,1.34,1.12,0.97,,,,,,,,,,,,,,,
A-427,1.01,0.886,1.01,0.782,0.802,0.679,0.758,0.669,0.935,1.04,0.942,0.906,0.478,0.173,0.181,0.166,0.173,0.235
ABC-1,,,,,,,,,0.262,0.396,0.28,0.287,0.274,0.145,0.172,0.222,0.177,0.14
BEN,0.0593,0.0841,0.0468,1,0.895,1.02,1.13,1.13,0.795,0.724,0.867,0.849,0.747,0.548,0.47,0.622,0.608,0.496
CAL-12T,1.18,1.35,0.832,0.374,0.302,0.309,0.245,0.324,0.956,,,0.992,1.09,0.364,0.245,0.303,0.371,0.261
COR-L23,1.14,1.03,0.913,0.656,0.374,0.558,0.532,0.656,1.03,,1.1,1.02,0.772,0.238,0.175,0.178,0.169,0.166
COR-L 105,0.691,0.668,0.823,0.392,0.491,0.427,0.434,0.538,0.792,0.718,0.777,0.822,0.622,0.361,0.337,0.329,0.379,0.32
Calu-6,0.796,0.823,0.647,,,,,,1.07,1.06,1.05,0.995,1.01,,,,,
ChaGo-K-1,0.978,1.02,1.59,0.954,0.829,0.859,0.856,0.559,1.01,0.935,0.656,0.756,0.673,0.209,0.234,0.209,0.216,0.234
EBC-1,0.447,0.402,0.356,,,,,,0.616,0.5,0.501,0.529,0.572,,,,,
EKVX,0.939,0.918,0.868,0.328,0.298,0.362,0.328,0.324,1.23,0.923,1.06,1.12,0.989,0.415,0.361,0.382,0.359,0.356
EMC-BAC-2,1.25,1.21,1.13,0.917,0.83,0.902,0.889,0.84,1.21,0.912,1.11,1.06,1.01,0.394,0.306,0.295,0.263,0.254
EPLC-272H,1.24,1.08,0.795,0.272,,0.293,0.284,0.271,0.735,0.526,0.825,0.769,0.843,0.196,0.288,0.208,0.237,0.249
H3255,0.537,0.64,0.503,0.791,0.533,0.584,0.557,0.546,0.747,0.707,0.738,0.792,0.677,0.621,0.372,0.611,0.692,0.466
HARA,1.21,1.14,0.948,0.448,,0.519,0.694,0.741,1.15,0.74,1.11,1.11,0.991,0.146,0.11,0.453,0.0948,0.101
HCC-15,0.639,0.593,0.619,0.414,0.359,0.374,0.36,0.391,1.04,0.804,1.01,1.06,0.727,0.438,0.342,0.345,0.383,0.301
HCC-44,1.09,1.01,0.933,1.06,0.933,1.15,1.13,1.08,0.879,0.914,0.926,0.882,0.711,1.17,0.947,0.925,0.873,0.676
HCC-78,0.792,0.67,0.622,0.788,0.697,0.744,1.02,0.669,0.433,0.362,0.511,0.572,0.543,0.436,0.4,0.515,0.431,0.448
HCC-366,1.19,1.03,1.03,0.378,0.326,0.374,0.381,0.313,1.05,0.633,1.01,1.16,1.06,0.123,0.0945,0.0992,0.0958,0.0525
HCC-827,1.02,0.999,0.949,0.544,0.476,0.516,0.571,0.462,0.995,0.907,1.13,1.02,1.04,0.452,0.417,0.376,0.4,0.419
HOP-62,1.19,0.999,1.09,0.433,0.383,0.384,0.398,0.36,0.505,0.961,0.674,0.882,1.03,0.346,0.304,0.353,0.39,0.377
IA-LM,0.765,0.696,0.899,,,,,,0.86,0.8,0.745,0.6,0.969,,,,,

Cell Line,relative viability ([1]; first compound 0.8 µM),relative viability ([1]; first compound 2.53 µM),relative viability ([1]; first compound 8 µM),relative viability ([2]; first compound 0.01 µM),relative viability ([2]; first compound 0.03162 µM),relative viability ([2]; first compound 0.1 µM),relative viability ([2]; first compound 0.3162 µM),relative viability ([2]; first compound 1 µM),relative viability ([3]; first compound 0.01 µM),relative viability ([3]; first compound 0.03162 µM),relative viability ([3]; first compound 0.1 µM),relative viability ([3]; first compound 0.3162 µM),relative viability ([3]; first compound 1 µM),relative viability ([4]; first compound 0.01 µM),relative viability ([4]; first compound 0.03162 µM),relative viability ([4]; first compound 0.1 µM),relative viability ([4]; first compound 0.3162 µM),relative viability ([4]; first compound 1 µM)
LC-2-ad,0.531,0.544,0.518,0.961,0.848,0.945,0.908,0.852,1.1,0.976,0.965,1.09,0.712,0.433,0.404,0.44,0.485,0.404
LCLC-97TM1,0.535,0.368,0.344,0.214,0.186,0.191,0.204,0.165,1.06,,0.689,0.455,0.531,0.224,0.22,0.175,0.205,0.172
LCLC-103H,,,,0.728,0.665,0.739,0.634,0.689,1.06,1.03,1.01,0.927,0.815,0.439,0.45,0.405,0.458,0.499
LK-2,0.912,0.778,0.941,1.01,0.659,0.692,0.872,0.872,,,,,,0.183,,0.164,0.167,0.169
LOU-NH91,0.73,0.666,0.717,0.829,0.735,0.75,0.76,0.742,0.557,0.491,0.441,0.483,0.442,0.667,0.63,0.669,0.638,0.561
NCI-H358,,,,0.131,0.131,0.127,0.135,0.12,,,,,,0.0852,0.0922,0.103,0.102,0.101
NCI-H522,,,,0.652,0.521,0.664,0.712,0.666,,,,,,0.545,0.495,0.595,0.567,0.5
NCI-H650,,,,0.981,0.939,0.921,1.1,0.941,0.662,0.635,0.703,0.764,0.694,0.682,0.695,0.718,0.739,0.603
NCI-H661,,,,0.691,0.503,0.584,0.586,0.567,0.817,0.738,0.84,0.829,0.935,0.333,0.382,0.351,0.339,0.337
NCI-H1299,1.06,1,0.983,,,,,,1.07,1.07,1.04,1.07,1.05,,,,,
NCI-H1395,1.01,1.06,1.31,1.24,0.983,0.886,1.1,0.916,,,,,,0.635,0.681,0.749,0.696,0.643
NCI-H1563,,,,,,,,,0.921,0.75,0.787,0.939,0.753,,,,,
NCI-H1623,,,,,,,,,,,,,,0.45,0.409,0.442,0.446,0.391
NCI-H1648,,,,0.482,,0.47,0.538,0.404,,,,,,0.406,,0.558,0.362,0.478
NCI-H1703,0.926,0.634,0.7,,,,,,0.646,0.261,0.349,0.203,0.289,,,,,
NCI-H1792,0.798,0.559,0.474,0.508,,0.372,0.585,0.413,1.17,,0.95,0.991,0.538,,,,,
NCI-H1793,0.471,0.261,0.301,0.479,,0.408,0.43,0.513,,,,,,0.313,0.344,0.338,0.283,0.291
NCI-H1944,1.03,1,1.04,0.387,0.403,0.428,0.445,0.41,,,,,,0.235,0.25,0.234,0.259,0.242
NCI-H2170,0.715,0.681,0.547,1.18,0.792,0.886,0.96,0.958,,,,,,0.689,0.933,0.663,0.804,0.679
NCI-H2342,,,,0.988,0.676,0.749,0.843,0.732,,,,,,0.54,0.537,0.492,0.47,0.506
SK-MES-1,1.42,1.33,1.21,0.519,0.537,0.483,0.491,0.562,,,,,,1.02,1,1.01,0.807,0.585
SW 900,,,,0.885,0.742,0.752,0.663,0.804,,,,,,0.659,0.474,0.444,0.438,0.329
